These results are taken from publication PMC10994559 (PLOS Neglected Tropical Diseases, 2024).

In data set [1] the test system is L. major axenic amastigotes. The data set can be described thus: L. major axenic amastigote viability, resazurin reduction. The note with it: Leishmania major. The procedure:
L. major LV561(MHOM/IL/67/LRC-L137 JERICHO II) amastigotes were passaged in Grace insect medium supplemented with NaHCO3, 0.1% amikin and 20% of FCS (pH: 5.4) and kept at 33°C.
Exponential growth phase promastigotes of L. major or L. infantum and axenic amastigotes (L. major) were harvested and seeded in 384 well plates (white, non-transparent, tissue culture treated, flat bottom; Corning) (0.5x10^5 cells per well). Compounds were pre-dispensed into the plate with an Echo 650 acoustic dispenser (Beckman Coulter). After 72h incubation, resazurin was added (1:10 v/v) from a […] stock in PBS, followed by incubation for six hours. Then, fluorescence intensity was measured using a microplate reader (Synergy H1, BioTek) with excitation filter: 550 nm and emission filter: 590 nm. Efficient compounds were selected for the next round of viability assay with 2.5 μM concentrations of the compounds. […] All experiments were performed with AmB as a positive control drug in parallel.
Axenic amastigotes, the relevant form that persists in the infected host, were generated in the lab through established procedures, employing harsh pH (pH 5) and high temperature (33°C) conditions.
(Resazurin is reduced to fluorescent resorufin, in cell work by metabolically active cells.)

Data set [2] relates to intracellular L. infantum amastigotes. The data set is described as follows: Parasite rescue assay (intramacrophage, J774 infected with L. infantum). It counts as cell-based, Leishmania infantum. To be noted: Leishmania infantum. The procedure:
After 24 h incubation, cells were washed five times with serum free RPMI and exposed to a serial dilution of test compounds, prepared using an acoustic dispenser (Echo 650, Labcyte), in RPMI (2% FCS). After two days, cells were washed thrice, and 20 μl of 0.05% SDS in RPMI was added upon removal of the supernatant. Upon incubation under orbital shaking for 30 seconds, cell lysis was stopped by addition of 180 μl M199 medium supplemented with 10% FCS. […] Then, fluorescence intensity of the samples was measured with a microplate reader (Synergy H1, BioTek) with λEx: 550 nm and λEm: 590 nm. Percent of viability was calculated according to cell only and media controls.
J774A.1 cells (J774) were infected with L. infantum metacyclic promastigotes. […] After controlled lysis of the infected macrophages, the released parasites were quantified using a resazurin based viability assay.

A further data set deals with L. major promastigotes. The data set can be described thus: L. major promastigote viability, resazurin reduction. It counts as cell-based, Leishmania major. To be noted: Leishmania major. The source says: (§1) The infectivity of the parasites was boosted by passaging in Balb/c mice and culturing the infected lymph nodes after six weeks. L. infantum (MHOM / BR / 76 / M4192) parasite was passaged in the same media formulation with 0.5% urine.

Data set [3] deals with L. infantum promastigotes. The data set is described as follows: L. infantum promastigote viability, resazurin reduction. The data set is classed as cell-based, Leishmania infantum. To be noted: Leishmania infantum.
Text: as §1

The test system of another data set is T. brucei brucei BSF. The data set can be described thus: T. brucei BSF viability, resazurin reduction. The note with it: for EC50: ± SD (Table 2) / ± SE (S3 Table). The data set is classed as cell-based, Trypanosoma brucei brucei. Here is the method:
T. brucei brucei (strain 427 Lister) blood stream form (BSF) parasites were passaged in complete HMI-9 media supplemented with 10% FCS, Pen-Strep (0.1%) and 2-mercaptoethanol (0.014 v/v) and kept in a 37° C CO2 incubator in filter-cap flasks.
(§2) Viability of T. brucei brucei BSF and T. cruzi trypomastigotes was assayed with fluorescence resazurin reduction assay, essentially as described above. […] Next, selected compounds were tested at 2.5 μM concentration, and promising compounds subjected to 18 concentrations dose response analyses. AN3057 and AmB were used as a control drug in T. brucei and T. cruzi, respectively.

A further data set concerns T. cruzi trypomastigotes. The data set is described as follows: T. cruzi viability, resazurin reduction. The data set is classed as cell-based, Trypanosoma cruzi. To be noted: Trypanosoma cruzi. Here is the method: T. cruzi (Y strain) trypomastigotes were passaged in liver infusion broth media supplemented with tryptose, NaCl, Na2HPO4, KCl, glucose, hemin, Pen-Strep (1%), 10% FCS (pH: 7.2) and kept at 28°C.
as §2

Data set [4] has as its system Murine macrophage cells (J774). The data set can be described thus: Cytotoxicity assay J774, resazurin reduction. The data set is classed as cell-based. The note with it: Mus musculus, J774, 72 h, cytotoxicity, 72 h. Here is the method:
(§3) Mammalian cell lines (J774 and HepG2) were passaged in RPMI media supplemented with MEM, Pen-Strep (1%) and 10% FCS. Cultures were kept at 37°C incubator with 5% CO2 in filter-cap flasks.
(§4) Murine macrophage cells (J774) and human hepatocyte carcinoma HepG2 cells were seeded at 0.5x10^5 cell/well in 384 well plates in triplicate, exposed to serial dilution of compounds, dispensed using an Echo 650 acoustic dispenser (Labcyte). After incubation for 72 h at 37°C, 5% CO2, cell viability was determined using fluorescence resazurin reduction assay (λEx: 550 nm; λEm: 590 nm).

A short description of data set [5]: Cytotoxicity assay J774, resazurin reduction. The note with it: mouse, J774 macrophage cells. The data set is classed as cell-based, murine. The procedure:
as §3, §4

A further data set deals with E. histolytica. The data set can be described thus: E. histolytica viability, ATP luminescence (Cell titer glo). It counts as cell-based, Entamoeba histolytica. The note with it: Entamoeba histolytica. Here is the method: Entamoeba histolytica (strain B2-5) was passaged in TY-1 medium (Trypticase peptone BBL, Yeast extract BBL, glucose, NaCl, K2HPO4, KH2PO4, cysteine, ascorbic acid, ammonium iron citrate, adult bovine serum, Diamond tween 80, penicillin G, amikacin (pH:6.8)) and kept in 37°C incubator in completely filled tubes with closed lid.
Viability of E. histolytica was assayed via a luminescence assay based on ATP quantification in the live cells. Briefly, 2.5x10^4 cell/ml were exposed to 25 μM of compounds in 96 well plates (non-transparent, tissue culture treated, flat bottom; SPL Life Sciences) in triplicate for 48h. Plates were incubated in sealed anaerobic bags (Oxoid AGS) together with an Anaerogen compact bag (Thermo Scientific) and anaerobic indicator (Thermo Scientific) at 37°C. Then, Cell titer glo reagent (Promega) was added to the reaction (1:5) according to manufacturers’ instruction. After 15 min of orbital shaking, followed by 10 min incubation at RT, ATP-bioluminescence was quantified at RT using a Synergy H1 plate reader (Synergy H1, BioTek). Metronidazole was included as control drug in all the assays for E. histolytica. Test compounds indicating significant growth reduction in the primary screen were subjected to potency determination. These secondary screens were essentially carried out as detailed above, but with a 9 to 16-point concentration range of the test compounds spanning 0.01–100 μM.
In general terms: ATP-based viability assays read luminescence as a measure of living cells.

For data set [6], the system named is intracellular L. infantum amastigotes. The data set can be described thus: Parasite rescue assay (intramacrophage, J774 infected with L. infantum). It counts as cell-based, Leishmania infantum. The note with it: J774, 25 µM; intracellular amastigote; read-out: viability, intracellular L. major amastigote (25 µM).

Where two headings read alike, the source gives them in different places.

Regarding `CC[C@@H](C)[C@H](c1nc2ccccc2n1Cc1cn(-c2c(F)c(F)c(F)c(F)c2F)nn1)N1C(=O)c2ccc(C)cc2C1=O` [PHT-80], the viability (commonly a read-out of living cells in per cent, often relative to untreated cells) at 2.5 µM in [1] (72 h, read-out: Residual viability, L.major amastigote (2.5 µM)) turned out to be 50.9 ± 3.89%; in [3] (72 h, vs non-treated cells, read-out: Residual viability, L. infantum promastigote (2.5 µM)), 90.2 ± 3.63%; with T. brucei brucei BSF (Trypanosoma brucei, 72 h, read-out: Residual viability, T.brucei (2.5 µM), BSF, 2.5 µM, 72 h) it was 3.4%; in the data set with T. cruzi trypomastigotes (72 h, 72 h, read-out: Residual viability, T.cruzi (2.5 µM)), 72.4 ± 2.05%; with E. histolytica (2.5 µM, 48 h, read-out: Residual viability, E.histolytica (2.5 µM)) it was 61.8 ± 13.1%. The viability at 25 µM in data set [1] (72 h, read-out: Residual viability, L.major amastigote (25 µM)) is 1.7%; in data set [2] (J774, rescue assay in J774, 25 µM, read-out: Residual viability, intracellular L. infantum amastigote (25 µM)) it was 50.6 ± 13.8%; in the data set on L. major promastigotes (25 µM, 72 h, vs non-treated cells, read-out: Residual viability, L.major promastigote (25 µM)), 11.3 ± 1.4%; in data set [3] (72 h, vs non-treated cells, ± SD, triplicate, read-out: Residual viability, L. infantum promastigote (25 µM)), 2.87 ± 0.48%; with T. brucei brucei BSF (Trypanosoma brucei, 72 h, BSF, 72 h, read-out: Residual viability, T.brucei (25 µM)), -2.86 ± 1.75%; in the data set with T. cruzi trypomastigotes (72 h, read-out: Residual viability, T.cruzi (25 µM), 25 µM, 72 h) it was 25.7 ± 3.29%. Besides, in the data set on E. histolytica (25 µM, 48 h, read-out: Residual viability, E.histolytica (25 µM)), the viability at 25 µM stood at 45.2 ± 18.6%. For the same molecule, the EC50 in data set [1] (read-out: EC50 L. major axenic amastigote) is 2500 ± 1700 nM; in data set [2] (J774, read-out: EC50 L. infantum rescue assay, intramacrophage (J774), 18 concentrations) it was more than 10 µM; in the data set on T. brucei brucei BSF (Trypanosoma brucei, read-out: EC50 T. brucei BSF, dose response, triplicate), 400 nM; with T. brucei brucei BSF (read-out: EC50 T. brucei BSF, dose response, triplicate), 500 nM; with T. brucei brucei BSF (read-out: EC50 T. brucei BSF, dose response, triplicate, listed as PH-80), 450 nM; in data set [4], more than 25 µM. For the same molecule, the “Residual viability, T.brucei (2.5 µM)” value in the data set on T. brucei brucei BSF (BSF, 2.5 µM, 72 h) is on record as 3.41±0.28%. Besides, the viability at 72 h, 2.5 µM in data set [5] (cytotoxicity, 72 h, read-out: Residual viability, J774 (2.5 µM)) was 124 ± 4.4%. Also, the viability at 72 h, 25 µM in data set [5] (cytotoxicity, 72 h, read-out: Residual viability, J774 (25 µM)) turned out to be 78.1 ± 6.86%.

Take `COc1ccc(NC[C@H](O)[C@@H](N)Cc2ccccc2)cc1` [LTC-1042, (2S,3S)-3-Amino-1-((4-methoxyphenyl)amino)-4-phenylbutan-2-ol]: the melting point (as a rule, the temperature of the solid-liquid transition) lay in the range of 78 to 80 °C. Also, the viability at 25 µM in data set [6] was determined as 67.6 ± 19.8%. The viability at 25 µM in [1] (read-out: viability, L.major amastigote (25 µM)) stood at 39 ± 23.4%. For the same molecule, the viability at 25 µM in the data set with L. major promastigotes (72 h, read-out: viability, L.major promastigote (25 µM)) is 86.4 ± 2.46%. Besides, in the data set with L. major promastigotes (25 µM, read-out: viability, L.major promastigote (25 µM)), the viability at 25 µM is 0.03 ± 0.1%. For the same molecule, in data set [3] (sheet LTC_compound_viability, value ± spread, read-out: viability, L. infantum promastigote (2.5 µM)), the viability at 2.5 µM was 81.7 ± 3.08%. Also, in data set [3] (sheet LTC_compound_viability, value ± spread, read-out: viability, L. infantum promastigote (25 µM)), the viability at 25 µM was 1.85 ± 0.19%. The viability at 2.5 µM with T. brucei brucei BSF (Trypanosoma brucei, 2.5 µM, read-out: viability, T.brucei (2.5 µM)) came to 77.3 ± 2.39%. The viability at 25 µM in the data set with T. brucei brucei BSF (Trypanosoma brucei, read-out: viability, T.brucei (25 µM)) was determined as 2.38 ± 1.15%. Besides, the viability at 2.5 µM with T. cruzi trypomastigotes (read-out: viability, T.cruzi (2.5 µM)) came out at 61.9 ± 1.61%. Further, the viability at 25 µM in the data set with T. cruzi trypomastigotes (25 µM, read-out: viability, T.cruzi (25 µM)) came out at 18.6 ± 2.9%. The viability at 72 h, 2.5 µM in data set [5] (read-out: viability, J774 (2.5 µM)) was found to be 93.9 ± 4.73%. In addition, the viability at 72 h, 25 µM in [5] (read-out: viability, J774 (25 µM)) was 97.8 ± 15.5%. For the same molecule, the viability at 2.5 µM in the data set on E. histolytica (read-out: viability, E.histolytica (2.5 µM)) was determined as 106 ± 18%. In addition, the viability at 25 µM with E. histolytica (read-out: viability, E.histolytica (25 µM)) was 125 ± 46.5%.
